According to patent publication US20050249787A1, “Methods and compositions for reducing oxidative stress in an animal” (Nestec SA, priority 2004, published 2005):
Marks after values point to notes of the source that are not given here.

Key:
F2-isoprostane = test: Plasma F2-isoprostane (F2I) in exercising sled dogs; assay type: in vivo
Procedure: (§1) Three groups of twelve dogs (mixed breed Alaskan sled dogs (husky pointer crosses)) were fed commercially available Pro Plan® Performance chicken and rice formula dog food as a basal diet, and each group was fed either: a placebo consisting of about 0.5 g maltodextrin, about 2 mg astaxanthin, or about 400 mg Vitamin E (alpha-tocopherol). Pro Plan® dog food is available from Nestle Purina Pet Care Company in St. Louis, Missouri. The dogs were trained three times a week on an exercise wheel for a period of six weeks. On the sixth week, the dogs rested for four days and then exercised three days in a row. Blood samples were collected before exercise on day one, immediately after exercise on day three, and at 24 hours and 48 hours after exercise. Plasma from the blood samples was analyzed for concentrations of malondialdehyde, F-2 isoprostanes, Vitamin E, creatine kinase activity as well as oxygen radical absorption capacity (ORAC).
(§2) All the dogs were maintained on the same basal diet (Purina Pro Plan® Performance chicken and rice formula) for one month prior to the onset and the entire duration of the experiment. Each dog was fed as an individual to maintain an optimal body condition score of 4/10.
(§3) Thirty-six sled dogs were housed at the Nestle Purina facility in Salcha, Alaska. The dogs were divided into three groups of 12 dogs so that each group was alike in age, sex and ability distribution. A treatment was randomly assigned to each group by drawing from a hat. Group “A” was assigned about 400 mg Vitamin E/day, group “B” was assigned about 2 mg Astaxanthin/day and group “C” was assigned about 500mg maltodextrin as a placebo. The people responsible for feeding, care, and training of the dogs were blind as to the identity of treatments until the completion of the study. Dogs were treated for six weeks before the onset of testing. They were also trained lightly for two sessions per week during this time period. Training sessions consisted of walking at 14 kilometers per hour for 2 hours in a 40-foot diameter circle tethered to a dog-walking wheel.
(§4) The testing took place over a six day period. On day one, pre-exercise blood samples were drawn from all the dogs. On day two, the dogs ran twelve km while pulling an all terrain vehicle (ATV) weighing 500 pounds. On day three, the dogs walked 16 miles on the dog wheel. On day four, the dogs again pulled the ATV for a distance of 12 kilometers. Immediately after exercise on day four, blood samples were drawn. Additional blood samples were drawn again at 24 hours and 48 hours after exercise. This sampling schedule was designed to examine changes in the parameters measured during exercise and during recovery. Samples were obtained by jugular venipuncture and collected into evacuated glass tubes containing sodium EDTA as an anticoagulant. Once collected they were kept on ice for not more than 10 minutes before they were centrifuged at 10,000 revolutions per minute (RPM) in 4°C. for a period of 10 minutes. The plasma was transferred into freezer vials where the dead space was replaced with gaseous nitrogen to decrease further oxidation during storage. The vials were then capped and immediately quenched in liquid nitrogen. The vials were recovered from liquid nitrogen and stored at −70°C. until analyzed. Each plasma sample was analyzed for malondialdehyde concentration using a standard HPLC, F2-isoprostane concentration utilizing a mass spectrometer and standard ELISA, Vitamin E concentration utilizing a standard HPLC, and Oxidative Radical Absorbance Capacity (ORAC test kit, Oxford Co.
(§5) F2 isoprostane and CK data was evaluated using a two way ANOVA for repeated measures. Post hoc comparisons were made using a student's t test corrected for repeated measures by the Bonneferroni method. Statistical significance was set at p<0.05 . The other data was also evaluated using ANOVA. The abbreviation “se” used with respect to the data in the tables below refers to standard error.

[1] = Osteoarthritis diet study, plasma and synovial fluid markers and gait (Example 6); assay type: in vivo, dogs; settings: 12 weeks
From the text: A diet supplemented with astaxanthin may be shown to reduce inflammation and associated pain in osteoarthritis. […] At 12 weeks of treatment, plasma and synovial fluid samples are taken from each animal and assayed for total antioxidant activity, and levels of malionaldehyde, prostaglandin, isoprostanes, MMPs and TIMPs. Additionally, the gait of the dogs may be assessed using standard force plate analyses.

creatine kinase = test: Plasma creatine kinase (CK) in exercising sled dogs; assay type: in vivo
Procedure: as §1, §2, §3, §4, §5

[2] = Delayed-type hypersensitivity skin reaction (Example 5); assay type: in vivo, dogs; settings: diet containing astaxanthin vs control animals
Procedure: (§6) To assess the effect of astaxanthin supplementation on immune function, dogs may be fed a diet containing astaxanthin and/or Vitamin E for 16 weeks. The amount of astaxanthin used may be 0, 1, 5, 10, 20, and 40 mg per animal per day. Various assays may be performed to assess immune function.
Delayed-type hypersensitivity may also be assessed in animals given a diet supplemented with astaxanthin. In these assays, control animals and animals fed a diet containing astaxanthin are given cutaneous injections of saline, a mitogen or a vaccine of distemper virus. The animals are then assessed to measure the skin reactions to mitogen, virus and control. In animals fed a diet containing astaxanthin, the skin reactions are more robust for virus and mitogen than that found in control animals.

[3] = system: canine lens epithelial cells; test: Canine lens epithelial cells stressed with UV light (Example 3); assay type: cell-based; settings: astaxanthin at physiological levels, UV light stress
From the text: An in vitro experiment may be performed using canine lens epithelial cells supplemented with astaxanthin at physiological levels.

[4] = cited from earlier work
[5] = system: peripheral blood mononuclear cells (PBMCs); test: In vitro lymphoproliferation of stimulated PBMC (Example 5); assay type: cell-based, dogs; settings: astaxanthin added to the media during stimulation, vs absence
[6] = Antibody titers against an antigen (Example 5); assay type: in vivo, dogs; settings: diet containing astaxanthin vs control animals
Procedure: as §6
Control animals and animals fed a diet containing astaxanthin may also be assessed for the robustness of the immune response against an antigen. For example, antibody titers against an antigen may be measured for control animals and animals fed a diet containing astaxanthin.

malondialdehyde = test: Plasma malondialdehyde (MDA) in exercising sled dogs (HPLC); assay type: in vivo
Procedure: as §1, §2, §3, §4, §5

cataract formation = test: In vivo cataract formation study, slit-lamp test (Example 4); set-up: species or system dogs; settings: treatment with astaxanthin, optionally Vitamin E, lutein, zeaxanthin, zinc; vs control; two year study
From the text: In a model study, 40 dogs could be chosen and randomly allocated to either the control group or to a treatment group receiving AAFCO recommended levels of antioxidants. The treatment group would receive astaxanthin and may also receive one or more of Vitamin E, lutein, zeaxanthin and zinc.

[7] = Plasma total Oxidative Radical Absorptive Capacity (ORAC) in exercising sled dogs; assay type: in vivo; settings: for ORAC (index of total anti-oxidant status) improvement by supplementation: any of the time periods measured
Procedure: as §1, §2, §3, §4, §5

[8] = dog, in vivo
Procedure: as §1, with “Blood samples were collected before exercise on day one, immediately after exercise on day three, and at 24 hours and 48 hours after exercise.” left out, “(ORAC). […]” for “(ORAC).”
The testing took place over a six day period. […] This sampling schedule was designed to examine changes in the parameters measured during exercise and during recovery. […] The vials were recovered from liquid nitrogen and stored at −70°C. until analyzed. Each plasma sample was analyzed for malondialdehyde concentration using a standard HPLC, F2-isoprostane concentration utilizing a mass spectrometer and standard ELISA, Vitamin E concentration utilizing a standard HPLC, and Oxidative Radical Absorbance Capacity (ORAC test kit, Oxford Co. […]

NK cells = test: Natural killer (NK) cell cytotoxicity from supplemented animals (Example 5); assay type: in vivo, dogs; settings: diet containing astaxanthin vs control animals
Procedure: as §6
In another assay, natural killer (NK) cell cytotoxicity is assessed for NK cells isolated from animals that are fed a diet including astaxanthin supplementation.

| SMILES | Plasma F2 Isoprostane concentration (mean +/− se) (F2-isoprostane; 24 hour post) | Plasma F2 Isoprostane concentration (mean +/− se) (F2-isoprostane; 48 hour post) | Plasma F2 Isoprostane concentration (mean +/− se) (F2-isoprostane; Post-ex) | Plasma F2 Isoprostane concentration (mean +/− se) (F2-isoprostane; Pre-ex) | Plasma Creatine Kinase (mean +/− se) (creatine kinase; 24 hour post) | Plasma Creatine Kinase (mean +/− se) (creatine kinase; 48 hour post) | Plasma Creatine Kinase (mean +/− se) (creatine kinase; Post-ex) | Plasma Creatine Kinase (mean +/− se) (creatine kinase; Pre-ex) | Plasma MDA (mean +/− se) (malondialdehyde; 24 hour post) | Plasma MDA (mean +/− se) (malondialdehyde; 48 hour post) | Plasma MDA (mean +/− se) (malondialdehyde; Post-ex) | Changes in Plasma MDA over time, Change from Baseline (malondialdehyde; Pre to 24 hour post) | Changes in Plasma MDA over time, Change from Baseline (malondialdehyde; Pre to 48 hour Post) | Changes in Plasma MDA over time, Change from Baseline (malondialdehyde; Pre to Post) | Plasma MDA (mean +/− se) (malondialdehyde; Pre-ex) | Plasma total ORAC (mean +/− se) ([7]; 24 hour post) | Plasma total ORAC (mean +/− se) ([7]; 48 hour post) | Plasma total ORAC (mean +/− se) ([7]; Post-ex) | Plasma total ORAC (mean +/− se) ([7]; Pre-ex) | ORAC (index of total anti-oxidant status) improvement by supplementation [7] | also measured |
| --- | --- | --- | --- | --- | --- | --- | --- | --- | --- | --- | --- | --- | --- | --- | --- | --- | --- | --- | --- | --- | --- |
| CC1=C(/C=C/C(C)=C/C=C/C(C)=C/C=C/C=C(C)/C=C/C=C(C)/C=C/C2=C(C)C(=O)[C@@H](O)CC2(C)C)C(C)(C)C[C@H](O)C1=O [ATX, astaxanthin] | 90 | 66 | 52 | 167 | 171 | 158 | 152 | 109 | 0.95 | 1.44 | 1.58 | −0.485* | −0.004 | 0.135 | 1.45 | 5700 | 4800 | 7460 | 7980 | not improved | F2I values compared to the placebo group (F2-isoprostane; immediately post-exercise and at 24 hours post-exercise): lower; isoprostanes, total antioxidant activity and MMPs in plasma and synovial fluid ([1]; 1, 5, 10, 20, or 40 mg per animal per day): decrease; gait, force plate analyses ([1]; compared to controls): significant improvement in gait; CK values compared with the Vitamin E group (creatine kinase; all time periods but 24 hours post-exercise): lower; skin reactions to virus and mitogen (delayed-type hypersensitivity) [2]: more robust; cell death [3]: significantly less cell death; free radical formation and lipid peroxidation products [3]: significantly reduce; in vitro oxygen radical absorptive capacity relative to Vitamin E [4]: 4 times; proliferation of PBMC [5]: increases proliferation of cells significantly more; antibody titers against an antigen [6]: higher antibody titers; Plasma malondialdehyde compared with placebo and Vitamin E groups (malondialdehyde; 24 hours post exercise): lower than either the placebo value or the Vitamin E value; cataract formation and severity, slit-lamp test (cataract formation): control group has significantly more cataract formation; Plasma Vitamin E concentration compared between treatment groups [8]: no significant difference; NK cytotoxicity (NK cells): significantly increased |
| Cc1c(C)c2c(c(C)c1O)CC[C@@](C)(CCC[C@H](C)CCC[C@H](C)CCCC(C)C)O2 [Vitamin E, alpha-tocopherol, reference compound] | 130 | 78 | 223 | 144 | 184 | 204 | 208 | 139 | 1.44 | 1.44 | 1.17 | −0.071 | −0.069 | −0.336* | 1.51 | 7590 | 4840 | 5850 | 7480 | not improved | F2I value compared to the placebo value (F2-isoprostane; 24 hour post-exercise): lower; malondialdehyde concentrations compared to the placebo group (malondialdehyde; during exercise): decreased; Plasma Vitamin E concentration compared between treatment groups [8]: greatest |
